Assay results from PubChem BioAssay (NCI).
Several values for one entry are separate records, joined by “and”; a condition that tells them apart may be missing. Equal entries are not always repeated.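 Dose response: 5 concentrations. Exposure: 48 h. Format: 96-well plates. Endpoint: linear interpolation; highest concentration if not reached. GI50: concentration for 50% inhibition of growth. Definition used: TGI = concentration required for complete inhibition of growth.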

How the values were obtained:
Experiment in all cases: NCI-60 cell line screen, 48 h
[1] = system: SK-OV-3 ovarian
[2] = system: IGROV1 ovarian
[3] = system: U251 CNS
[4] = system: UO-31 renal
[5] = system: COLO 205 colon
[6] = system: OVCAR-4 ovarian
[7] = system: M14 melanoma
[8] = system: SR leukemia
[9] = system: MOLT-4 leukemia
[10] = system: A498 renal

Structure (SMILES)	GI50 [1]	TGI [1]	GI50 [2]	TGI [2]	GI50 [3]	TGI [3]	GI50 [4]	TGI [4]	GI50 [5]	TGI [5]	GI50 [6]	TGI [6]	GI50 [7]	TGI [7]	GI50 [8]	TGI [8]	GI50 [9]	TGI [9]	TGI [10]	GI50 [10]
CC[C@H](C)[C@H](NC(=O)N[C@@H](C)c1ccccc1)C(=O)N(C)[C@H](C[C@@H](OC(C)=O)c1nc(C(=O)N[C@@H](Cc2ccccc2)C[C@H](C)C(=O)OC)cs1)C(C)C	42.2 µM	> 100 µM	20.9 µM	> 100 µM	33.1 µM	> 100 µM	25.5 µM	> 100 µM	20.1 µM	57.1 µM	38.5 µM	> 100 µM	15.9 µM	46.7 µM	–	–	–	–	–	–
N#CC1=C(N)NC(=S)C(C#N)C12Nc1ccccc1S2 (stereo unspecified)	27.1 µM	77.8 µM	29.3 µM	72.5 µM	18.3 µM	40.2 µM	17.6 µM	38.5 µM	25.5 µM	60.6 µM	–	–	16.1 µM	32 µM	78.9 µM	> 100 µM	> 100 µM	> 100 µM	–	–
CCCC/C=C1\CCC(CN2CCCC2)C1=O (stereo unspecified)	–	97.1 µM	–	34.2 µM	–	19.6 µM	–	32.3 µM	–	26.1 µM	–	–	–	23.4 µM	–	24.5 µM	–	36.2 µM	28.2 µM	–
CN1CCN(CCCOc2ccc3ncnc(Nc4ccc(Oc5cccc(F)c5)c(Cl)c4)c3c2)CC1	–	–	0.711 µM	2.23 µM	1.56 µM	3.29 µM	1.11 µM	2.3 µM	1.86 µM	3.64 µM	1.62 µM	3.6 µM	1.79 µM	3.62 µM	–	–	1.76 µM	4.35 µM	2.74 µM	1.25 µM
CCOC(=O)/N=c1\ssc(Cl)c1Cl	20.6 µM	45.6 µM	–	–	3.34 µM	13.8 µM	4.97 µM	> 100 µM	19 µM	44.8 µM	35.5 µM	> 100 µM	7.44 µM	> 100 µM	0.414 µM	> 100 µM	3.06 µM	> 100 µM	–	–
Cc1ccc(NCCNCC(O)CO)c2c(=O)c3ccccc3sc12 (stereo unspecified)	1.65 µM	3.86 µM	1.61 µM	3.43 µM	1.67 µM	3.51 µM	1.12 µM	2.48 µM	1.32 µM	3.02 µM	1.86 µM	4.68 µM	1.55 µM	3.13 µM	1.55 µM	3.97 µM	–	–	–	–
C=C1C(=O)C23CC1CCC2C12CO[C@@]3(O)[C@@H](O)C1C(C)(C)C=CC2=O (stereo partly specified)	26.1 µM	13.7 µM and 54.5 µM	–	–	16.7 µM	5.15 µM and 33.3 µM	8.37 µM	4.2 µM and 20.4 µM	3.18 µM	1.86 µM and 10.1 µM	–	–	–	6.1 µM	0.721 µM	43.6 µM and 16.1 µM	2.6 µM	2.15 µM and 9.87 µM	–	–
N=C(N)SCC(=O)O	–	> 100 µM	–	> 100 µM	–	> 100 µM	–	> 100 µM	–	> 100 µM	–	> 100 µM	–	> 100 µM	–	–	–	> 100 µM	> 100 µM	–
CC(=O)[O-].O=[N+]([O-])c1ccc([O-])c(C=NCCN=Cc2cc([N+](=O)[O-])ccc2[O-])c1.[Mn+3]	> 100 µM	> 100 µM	2.73 µM	19.9 µM	> 100 µM	> 100 µM	> 100 µM	> 100 µM	–	–	> 100 µM	> 100 µM	> 100 µM	> 100 µM	–	–	> 100 µM	> 100 µM	> 100 µM	> 100 µM
c1cc2ccc1C1NCCCN1CCN1CCCNC1c1ccc(cc1)C1NCCCN1CCN1CCCNC21 (stereo unspecified)	–	> 100 µM	–	> 100 µM	–	> 100 µM	–	> 100 µM	–	> 100 µM	–	> 100 µM	–	> 100 µM	–	–	–	> 100 µM	> 100 µM	–
CC(C)(C)OC(=O)n1c(Cl)c(C(=O)N=C=S)c2ccccc21	> 100 µM	> 100 µM	9.65 µM	34.7 µM	34.2 µM	> 100 µM	18.5 µM	35.8 µM	33.6 µM	> 100 µM	> 100 µM	> 100 µM	> 100 µM	> 100 µM	–	–	–	–	> 100 µM	92.6 µM
C/C(=N\O)[C@H]1CC[C@@]2(C)[C@@H]3CC[C@H]4C(C)(C)/C(=N/O)CC[C@@]45CC35CC[C@]12C (stereo partly specified)	6.18 µM	> 16.7 µM	5.28 µM	> 16.7 µM	3.51 µM	6.81 µM	–	–	5.75 µM	> 16.7 µM	–	–	3.2 µM	8.11 µM	1.85 µM	> 16.7 µM	3.26 µM	> 16.7 µM	5.87 µM	2.46 µM
CC(C)(C)c1cc(C(=O)O)c(C(c2ccccc2)c2ccccc2C(=O)O)c(C(=O)O)c1 (stereo unspecified)	–	36.9 µM	–	–	–	25.4 µM	–	> 100 µM	–	> 100 µM	–	37.7 µM	–	> 100 µM	–	> 100 µM	–	> 100 µM	–	–
C=C1c2ccccc2N(S(=O)(=O)c2ccc(C)cc2)C12CCCCC2	–	> 100 µM	–	> 100 µM	–	> 100 µM	–	> 100 µM	–	> 100 µM	–	> 100 µM	–	> 100 µM	–	> 100 µM	–	> 100 µM	–	–
C#CCn1cc(C=C2C(=O)NC(=S)NC2=O)c2cc(Cl)ccc21	2.87 µM	14.7 µM	2.13 µM	5.1 µM	1.87 µM	3.9 µM	1.7 µM	3.44 µM	2.22 µM	5.28 µM	2.28 µM	7.01 µM	2 µM	4.76 µM	–	–	2.44 µM	6.38 µM	–	–
Nc1nc(Cl)cc(NCCCCCCNc2cc(Cl)nc(N)n2)n1	–	> 100 µM	–	> 100 µM	–	> 100 µM	–	> 100 µM	–	> 100 µM	–	> 100 µM	–	> 100 µM	–	> 100 µM	–	> 100 µM	–	–
C1=CC=C2NCCSCCNC3=CC=CC=CC3=NCCSCCN=C2C=C1	–	> 100 µM	–	> 100 µM	–	> 100 µM	–	> 100 µM	–	> 100 µM	–	> 100 µM	–	> 100 µM	–	–	–	> 100 µM	> 100 µM	–
CCOC(=O)c1cc(C(=O)O)c(=O)n2c1[nH]c1ccccc12	–	> 100 µM	–	> 100 µM	–	> 100 µM	–	87.7 µM	–	> 100 µM	–	> 100 µM	–	> 100 µM	–	–	–	> 100 µM	> 100 µM	–
